Experimental findings from patent US20220145343A1 (priority 2019, published 2022) are described below.

For experiment [1], the system named is α1-4-galactosyltransferase activity of NmSiaDW. Description: Donor substrate specificity for the α1-4-galactosyltransferase activity of NmSiaDW using different sugar nucleotides (acceptor S3). It is filed as biochemical, Neisseria meningitidis. The settings on record: for Percentage conversion (%): acceptor S3 1 mM, donor 2 mM, 30° C. On the procedure:
Galactosyltransferase activity was assayed in reaction buffer (100 mM MES, pH 6.5, 10 mM MgCl2) in the presence of 2 mM UDP-sugars and 1 mM Neu5Acα2-6Galα1-4Neu5AcαProNHCbz in a total volume of 10 μL. Reaction was performed at 30° C. with 0.11 μg NmSiaDW for 10 min or 6.6 μg NmSiaDW for 10 h. Reaction was quenched by addition of 10 μL pre-chilled ethanol and incubated at −20° C. for 30 min. […] GDP-Fuc and CMP-Neu5Ac were also included.
Samples were analyzed using UPLC with EcilpsePlusC18 column or AdvancBio Glycan Map column, Agilent. The samples were further analyzed by electrospray ionization (ESI)-HRMS using a Thermo Electron LTQ-Orbitrap Hybrid MS in a negative mode.

Experiment [2] has as its target NmSiaDW sialyltransferase activity (Neisseria meningitidis, UniProt O33390). The settings on record: apparent; varying acceptor, 10 mM CMP-Neu5Ac, pH 8.0, 30° C.
A further experiment has as its target NmCSS (Neisseria meningitidis, UniProt P0A0Z8). In kind it is biochemical. The following applies: step 1 in the presence of NmCSS (0.75 mg/mL) for 10 h.
In experiment [3] the test system is α1-4-galactosyltransferase activity of NmSiaDW. It is filed as biochemical, Neisseria meningitidis.
The subject of experiment [4] is α2-6-sialyltransferase activity of NmSiaDW. It is filed as biochemical, Neisseria meningitidis.
A further experiment relates to NmCSS and PmAldolase. It is filed as biochemical, Neisseria meningitidis; Pasteurella multocida.
Experiment [5] concerns the target NmSiaDW galactosyltransferase activity (Neisseria meningitidis, UniProt O33390). The settings on record: apparent; varying acceptor, 2 mM UDP-Gal, pH 6.5, 30° C.

“And” between values parts separate entries of the source, which are not always exact repeats. Equal values may be shown once. Marks after values point to notes of the source that are not given here.

Sequence of NmSiaDW sialyltransferase activity (O33390 1-1037): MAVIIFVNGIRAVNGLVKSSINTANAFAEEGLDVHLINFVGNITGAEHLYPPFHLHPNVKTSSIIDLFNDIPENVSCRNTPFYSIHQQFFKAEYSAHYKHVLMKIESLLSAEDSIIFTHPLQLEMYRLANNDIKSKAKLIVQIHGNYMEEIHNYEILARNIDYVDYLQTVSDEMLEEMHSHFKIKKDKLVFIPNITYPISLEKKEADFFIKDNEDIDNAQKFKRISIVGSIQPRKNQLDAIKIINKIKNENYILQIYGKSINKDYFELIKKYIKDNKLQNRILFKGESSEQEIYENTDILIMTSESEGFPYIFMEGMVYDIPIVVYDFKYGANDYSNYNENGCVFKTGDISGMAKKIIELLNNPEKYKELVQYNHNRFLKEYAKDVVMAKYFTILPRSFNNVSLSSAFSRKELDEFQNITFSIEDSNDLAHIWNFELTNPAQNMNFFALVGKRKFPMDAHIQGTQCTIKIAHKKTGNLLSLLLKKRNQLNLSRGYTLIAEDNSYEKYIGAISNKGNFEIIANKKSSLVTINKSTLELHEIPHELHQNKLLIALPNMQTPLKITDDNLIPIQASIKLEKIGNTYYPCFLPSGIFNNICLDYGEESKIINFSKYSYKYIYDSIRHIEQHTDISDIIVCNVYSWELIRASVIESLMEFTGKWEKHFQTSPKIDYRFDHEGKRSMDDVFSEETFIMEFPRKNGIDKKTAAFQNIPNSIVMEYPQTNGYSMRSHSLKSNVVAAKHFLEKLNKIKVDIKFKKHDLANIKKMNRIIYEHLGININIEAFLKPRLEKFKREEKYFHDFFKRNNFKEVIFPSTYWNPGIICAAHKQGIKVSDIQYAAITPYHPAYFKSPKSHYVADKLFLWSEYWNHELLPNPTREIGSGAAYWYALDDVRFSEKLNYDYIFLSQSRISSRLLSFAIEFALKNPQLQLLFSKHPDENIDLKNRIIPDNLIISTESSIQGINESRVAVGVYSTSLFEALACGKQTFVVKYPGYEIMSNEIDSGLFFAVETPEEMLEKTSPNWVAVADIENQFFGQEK
Sequence of NmCSS (P0A0Z8 whole entry): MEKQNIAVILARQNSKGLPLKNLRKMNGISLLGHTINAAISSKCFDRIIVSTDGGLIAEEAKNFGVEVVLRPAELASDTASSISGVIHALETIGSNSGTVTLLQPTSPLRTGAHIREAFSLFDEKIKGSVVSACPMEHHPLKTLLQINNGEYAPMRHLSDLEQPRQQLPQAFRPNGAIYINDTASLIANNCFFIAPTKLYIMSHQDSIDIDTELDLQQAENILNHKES
Sequence of NmSiaDW galactosyltransferase activity (O33390 1-1037): as the sequence (O33390 1-1037) above

As for `CC(=O)N[C@H]1[C@H]([C@H](O)[C@H](O)CO)O[C@](OP(=O)(O)OC[C@H]2O[C@@H](n3ccc(N)nc3=O)[C@H](O)[C@@H]2O)(C(=O)O)C[C@@H]1O` [CMP-Neu5Ac, cytidine-5′-monophosphate Neu5Ac], the “Percentage conversion (%)” value worked out at 0% in experiment [1] (11 μg/mL NmSiaDW, 10 min) and 0% in experiment [1] (0.66 mg/mL NmSiaDW, 10 h). Turning to `CC(=O)N[C@H]1[C@H]([C@H](O)[C@H](O)CO)O[C@@](OC[C@H]2O[C@H](O[C@H]3C[C@](OCCCNC(=O)OCc4ccccc4)(C(=O)O)O[C@@H]([C@H](O)[C@H](O)CO)[C@@H]3NC(C)=O)[C@H](O)[C@@H](O)[C@H]2O)(C(=O)O)C[C@@H]1O[C@H]1O[C@H](CO)[C@H](O)[C@H](O)[C@H]1O` [G4, Galα1-4Neu5Acα2-6Galα1-4Neu5AcαProNHCbz], the kcat (as a rule, the number of substrate molecules converted per active site and unit of time at saturation) in experiment [2] is 23.1 ± 1.1 s⁻¹. On to `CC(=O)N[C@H]1[C@H]([C@H](O)[C@H](O)CO)O[C@@](OC[C@H]2O[C@H](O[C@H]3C[C@](OC[C@H]4O[C@H](O[C@H]5C[C@](OCCCNC(=O)OCc6ccccc6)(C(=O)O)O[C@@H]([C@H](O)[C@H](O)CO)[C@@H]5NC(C)=O)[C@H](O)[C@@H](O)[C@H]4O)(C(=O)O)O[C@@H]([C@H](O)[C@H](O)CO)[C@@H]3NC(C)=O)[C@H](O)[C@@H](O)[C@H]2O)(C(=O)O)C[C@@H]1O[C@H]1O[C@H](CO)[C@H](O)[C@H](O)[C@H]1O` [G6, Galα1(-4Neu5Acα2-6Galα1)2-4Neu5AcαProNHCbz], for which, in experiment [2], the Michaelis-Menten constant (Km) (usually the concentration of substrate that gives half-maximal velocity) is 230 ± 40 µM and the kcat amounted to 11.9 ± 0.5 s⁻¹.

Consider `CC(=O)N[C@H]1[C@H]([C@H](O)[C@H](O)CO)O[C@@](OC[C@H]2O[C@H](O[C@H]3C[C@](OC[C@H]4O[C@H](O[C@H]5C[C@](OC[C@H]6O[C@H](O[C@H]7C[C@](OCCCNC(=O)OCc8ccccc8)(C(=O)O)O[C@@H]([C@H](O)[C@H](O)CO)[C@@H]7NC(C)=O)[C@H](O)[C@@H](O)[C@H]6O)(C(=O)O)O[C@@H]([C@H](O)[C@H](O)CO)[C@@H]5NC(C)=O)[C@H](O)[C@@H](O)[C@H]4O)(C(=O)O)O[C@@H]([C@H](O)[C@H](O)CO)[C@@H]3NC(C)=O)[C@H](O)[C@@H](O)[C@H]2O)(C(=O)O)C[C@@H]1O[C@H]1O[C@H](CO)[C@H](O)[C@H](O)[C@H]1O` [G8, Galα1(-4Neu5Acα2-6Galα1)3-4Neu5AcαProNHCbz], for which, in experiment [2], the Michaelis constant (Km) amounted to 250 ± 40 µM and the catalytic constant (kcat) was 10.3 ± 0.5 s⁻¹. In the case of `C[C@@H]1O[C@H](OP(=O)(O)OP(=O)(O)OC[C@H]2O[C@@H](n3cnc4c(=O)[nH]c(N)nc43)[C@H](O)[C@@H]2O)[C@@H](O)[C@H](O)[C@@H]1O` [GDP-Fucose], the “Percentage conversion (%)” value is listed as 0% in experiment [1] (11 μg/mL NmSiaDW, 10 min) and 0% in experiment [1] (0.66 mg/mL NmSiaDW, 10 h). In the case of `O=C(O)C(=O)C[C@H](O)[C@@H](O)[C@@H](O)[C@H](O)[C@H](O)CO` [Kdn, 2-keto-3-deoxynonulosonic acid], the “Percentage conversion (%) CMP-Sialic acid” value on NmCSS is on record as “Quantitative ^a”. In the case of `CC(=O)NC1C(OCCCCl)OC(CO)C(O)C1OC1OC(CO)C(O)C(OC2(C(=O)O)CC(O)C(N=[N+]=[N-])C(C(N=[N+]=[N-])C(C)O)O2)C1O` (stereo not drawn) [Leg5,7diN3α2-3Galβ1-3GalNAcβProCl], in experiment [3], the Product result is on record as “√”.

For `[N-]=[N+]=N[C@H](C=O)[C@@H](O)[C@H](O)[C@H](O)CO` [Man2N3, 2-azido-2-deoxy-mannose], in experiment [4], the “Percentage conversion (%) Transferase Reaction” value is on record as 0%. Besides, the “Percentage conversion (%) CMP-Sialic acid” value in the experiment with NmCSS and PmAldolase was 77 ± 1 ^b %. In the case of `CC(=O)N[C@@H]1C(O)O[C@H](CO)[C@@H](N=[N+]=[N-])[C@@H]1O` (stereo partly shown) [ManNAc4N3, 4-azido-4-deoxy-N-acetylmannosamine], the “Percentage conversion (%) CMP-Sialic acid” value with NmCSS and PmAldolase is recorded as 90 ± 3 ^b %.

For `CC(=O)N[C@@H]1C(O)O[C@H](CN=[N+]=[N-])[C@@H](O)[C@@H]1O` (stereo partly shown) [ManNAc6N3, 6-azido-6-deoxy-N-acetylmannosamine], in the experiment on NmCSS and PmAldolase, the “Percentage conversion (%) CMP-Sialic acid” value is on record as 91 ± 10 ^b %. As to `CC(=O)NC[C@@H](O)[C@@H](O)[C@H](O)[C@@H](C=O)NC(C)=O` [ManNAc6NAc, 6-N-acetyl-6-deoxy-N-acetylmannosamine], in experiment [4], the “Percentage conversion (%) Transferase Reaction” value was found to be 0%. In addition, the “Percentage conversion (%) CMP-Sialic acid” value in the experiment on NmCSS and PmAldolase was 87 ± 2 ^b %. For `[N-]=[N+]=NCC(=O)N[C@@H]1C(O)O[C@H](CO)[C@@H](O)[C@@H]1O` (stereo partly shown) [ManNAz, N-azidoacetylmannosamine], in the experiment on NmCSS and PmAldolase, the “Percentage conversion (%) CMP-Sialic acid” value is “Quantitative ^b”. For `CC(=O)N[C@H]1[C@H]([C@H](O)[C@H](O)CO)OC(O)(C(=O)O)C[C@@H]1OC(C)=O` (stereo partly shown) [Neu4,5Ac, 4-O-acetyl-N-acetylneuraminic acid], the “Percentage conversion (%) Transferase Reaction” value in experiment [4] was found to be 0%. Moreover, the “Percentage conversion (%) CMP-Sialic acid” value at NmCSS was 53 ± 1 ^a %. In the case of `CC(=O)N[C@H]1[C@H]([C@H](O)[C@H](O)COC(C)=O)OC(O)(C(=O)O)C[C@@H]1O` (stereo partly shown) [Neu5,9Ac, 9-O-acetyl-N-acetylneuraminic acid], the “Percentage conversion (%) Transferase Reaction” value in experiment [4] was 0%. Also, the “Percentage conversion (%) CMP-Sialic acid” value on NmCSS was 61 ± 2 ^a %.

For `CO[C@H](CO)[C@@H](O)[C@@H]1OC(O)(C(=O)O)C[C@H](O)[C@H]1NC(C)=O` (stereo partly shown) [Neu5Ac8OMe, 8-O-methyl-N-acetylneuraminic acid], at NmCSS, the “Percentage conversion (%) CMP-Sialic acid” value is recorded as 79 ± 1 ^a %. `CC(=O)N[C@H]1[C@H]([C@H](O)[C@H](O)CO)OC(O)(C(=O)O)C[C@@H]1O` (stereo partly shown) [Neu5Ac, N-acetylneuraminic acid]: at NmCSS, the “Percentage conversion (%) CMP-Sialic acid” value is recorded as “Quantitative ^a”. For the compound `CC(=O)NC1C(O)CC(OC2C(O)C(CO)OC(OC3C(O)C(CO)OC(OCCCN=[N+]=[N-])C3NC(C)=O)C2O)(C(=O)O)OC1C(O)C(O)CO` (stereo not shown) [Neu5Acα2-3Galβ1-3GalNAcβProN3], in experiment [3], the Product result is listed as “√” and the “acceptor substrate suitability in words” value is on record as “could also tolerate”. Consider `CC(=O)NC1C(O)CC(OCC2OC(OCCCN)C(O)C(O)C2O)(C(=O)O)OC1C(O)C(O)CO` (stereo not shown) [Neu5Acα2-6GalβProNH2], for which the Product entry in experiment [3] is “√”. Turning to `CC(=O)N[C@H]1[C@H]([C@H](O)[C@H](O)CO)OC(OC[C@H]2O[C@@H](Oc3ccc([N+](=O)[O-])cc3)[C@H](O)[C@@H](O)[C@H]2O)(C(=O)O)C[C@@H]1O` (stereo partly shown) [Neu5Acα2-6GalβpNP], in experiment [3], the Product result is given as “√”. Turning to `O=C(CO)N[C@H]1[C@H]([C@H](O)[C@H](O)CO)OC(O)(C(=O)O)C[C@@H]1O` (stereo partly shown) [Neu5Gc, N-glycolylneuraminic acid], in experiment [4], the “Percentage conversion (%) Transferase Reaction” value is 47 ± 3% and 88 ± 3%. Further, the “Percentage conversion (%) CMP-Sialic acid” value on NmCSS was 90 ± 2 ^a %. Consider `CC(=O)N[C@H]1[C@H]([C@H](O)[C@H](O)CO)O[C@@](OCCCNC(=O)OCc2ccccc2)(C(=O)O)C[C@@H]1O[C@H]1O[C@H](CO[C@]2(C(=O)O)C[C@H](O[C@H]3O[C@H](CO[C@]4(C(=O)O)C[C@H](O[C@H]5O[C@H](CO[C@]6(C(=O)O)C[C@H](O)[C@@H](NC(C)=O)[C@H]([C@H](O)[C@H](O)CO)O6)[C@H](O)[C@H](O)[C@H]5O)[C@@H](NC(C)=O)[C@H]([C@H](O)[C@H](O)CO)O4)[C@H](O)[C@H](O)[C@H]3O)[C@@H](NC(C)=O)[C@H]([C@H](O)[C@H](O)CO)O2)[C@H](O)[C@H](O)[C@H]1O` [S7, Neu5Acα2(-6Galα1-4Neu5Acα2)3-ProNHCbz], for which, in experiment [5], the Km was determined as 70 ± 10 µM and the kcat is 5.5 ± 0.2 s⁻¹. With `O=C(O)[C@H]1O[C@H](OP(=O)(O)OP(=O)(O)OC[C@H]2O[C@@H](n3ccc(=O)[nH]c3=O)[C@H](O)[C@@H]2O)[C@H](O)[C@@H](O)[C@H]1O` [UDP-GalA], the “Percentage conversion (%)” value in experiment [1] (11 μg/mL NmSiaDW, 10 min) was 0%; in experiment [1] (0.66 mg/mL NmSiaDW, 10 h), less than 1%. `CC(=O)N[C@H]1[C@@H](OP(=O)(O)OP(=O)(O)OC[C@H]2O[C@@H](n3ccc(=O)[nH]c3=O)[C@H](O)[C@@H]2O)O[C@H](CO)[C@H](O)[C@@H]1O` [UDP-GalNAc]: the “Percentage conversion (%)” value amounted to 0% in experiment [1] (11 μg/mL NmSiaDW, 10 min) and 1.9 ± 0.2% in experiment [1] (0.66 mg/mL NmSiaDW, 10 h). Also, in experiment [1] (compared to UDP-Gal, acceptor S3), the “donor substrate quality in words” value is on record as “tolerated as poor donor substrate”. With `O=C(O)[C@H]1O[C@H](OP(=O)(O)OP(=O)(O)OC[C@H]2O[C@@H](n3ccc(=O)[nH]c3=O)[C@H](O)[C@@H]2O)[C@H](O)[C@@H](O)[C@@H]1O` [UDP-GlcA], the “Percentage conversion (%)” value in experiment [1] (11 μg/mL NmSiaDW, 10 min) stood at 0%; in experiment [1] (0.66 mg/mL NmSiaDW, 10 h) it was 0%. In the case of `CC(=O)N[C@H]1[C@@H](OP(=O)(O)OP(=O)(O)OC[C@H]2O[C@@H](n3ccc(=O)[nH]c3=O)[C@H](O)[C@@H]2O)O[C@H](CO)[C@@H](O)[C@@H]1O` [UDP-GlcNAc], the “Percentage conversion (%)” value in experiment [1] (11 μg/mL NmSiaDW, 10 min) was determined as 0%; in experiment [1] (0.66 mg/mL NmSiaDW, 10 h), 0%. On to `CC(=O)N[C@@H]1[C@@H](OP(=O)(O)OP(=O)(O)OC[C@H]2O[C@@H](n3ccc(=O)[nH]c3=O)[C@H](O)[C@@H]2O)O[C@H](CO)[C@@H](O)[C@@H]1O` [UDP-ManNAc], for which the “Percentage conversion (%)” value in experiment [1] (11 μg/mL NmSiaDW, 10 min) was determined as 0%; in experiment [1] (0.66 mg/mL NmSiaDW, 10 h), 0%. With Leg5,7Ac2α2-3Galβ1-3GalNAcβProN3, the Product entry in experiment [3] is recorded as “Not Detected”. Neu5Ac7N3α2-6Galα1-4Neu5AcαProNHCbz: the Product result in experiment [3] was “√”.

Neu5Ac9N3α2-6Galα1-4Neu5AcαProNHCbz: in experiment [3], the Product entry is “√”.
